The numbers were not newly measured in patent publication US20220226508A1, “METHODS AND COMPOSITIONS FOR TREATING EPILEPSY” (THE REGENTS OF THE UNIVERSITY OF CALIFORNIA, priority 2019, published 2022), which cites them from elsewhere.

Structures are written as SMILES.

One data set has as its target 5-HT1B (Homo sapiens, UniProt P28222). The note with it: read-out: binding affinity (Ki) 5-HT1B; cited from earlier work.
Another data set addresses 5-HT1D (Homo sapiens, UniProt P28221). To be noted: read-out: binding affinity (Ki) 5-HT1D; cited from earlier work.
The target of a further data set is 5-HT6 (Homo sapiens, UniProt P50406). The note with it: read-out: binding affinity (Ki) 5-HT6; cited from earlier work.
5-HT6, sequence (P50406 whole entry, species assumed): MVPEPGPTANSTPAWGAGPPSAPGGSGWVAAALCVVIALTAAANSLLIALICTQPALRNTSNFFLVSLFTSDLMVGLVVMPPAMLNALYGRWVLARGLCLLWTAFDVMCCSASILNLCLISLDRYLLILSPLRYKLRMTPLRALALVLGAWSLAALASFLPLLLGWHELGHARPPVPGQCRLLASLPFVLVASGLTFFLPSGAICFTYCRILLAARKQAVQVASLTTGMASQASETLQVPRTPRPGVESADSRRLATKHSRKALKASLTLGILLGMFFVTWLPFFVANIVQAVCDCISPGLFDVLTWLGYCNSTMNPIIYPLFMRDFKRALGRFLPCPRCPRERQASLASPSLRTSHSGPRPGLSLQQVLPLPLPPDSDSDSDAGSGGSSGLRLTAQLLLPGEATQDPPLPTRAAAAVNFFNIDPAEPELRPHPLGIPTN
The target in a further data set is 5-HT7 (Homo sapiens, UniProt P34969). To be noted: read-out: binding affinity (Ki) 5-HT7; cited from earlier work.
5-HT7, sequence (P34969 whole entry, species assumed): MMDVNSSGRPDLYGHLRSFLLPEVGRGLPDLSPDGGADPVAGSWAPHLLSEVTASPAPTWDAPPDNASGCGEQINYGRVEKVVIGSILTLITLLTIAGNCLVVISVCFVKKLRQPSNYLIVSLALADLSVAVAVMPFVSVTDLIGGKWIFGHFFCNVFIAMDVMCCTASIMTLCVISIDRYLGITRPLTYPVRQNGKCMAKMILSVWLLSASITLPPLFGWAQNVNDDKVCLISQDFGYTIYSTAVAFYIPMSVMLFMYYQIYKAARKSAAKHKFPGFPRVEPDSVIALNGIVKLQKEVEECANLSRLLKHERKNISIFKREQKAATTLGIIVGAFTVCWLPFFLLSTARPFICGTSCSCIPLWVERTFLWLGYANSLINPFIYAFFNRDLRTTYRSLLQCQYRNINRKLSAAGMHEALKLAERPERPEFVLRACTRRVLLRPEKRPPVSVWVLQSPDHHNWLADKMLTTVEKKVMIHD
The target in the next data set is T1, Adrenergic Alpha1B (Homo sapiens, UniProt P35368).
T1 sequence (P35368 1-520): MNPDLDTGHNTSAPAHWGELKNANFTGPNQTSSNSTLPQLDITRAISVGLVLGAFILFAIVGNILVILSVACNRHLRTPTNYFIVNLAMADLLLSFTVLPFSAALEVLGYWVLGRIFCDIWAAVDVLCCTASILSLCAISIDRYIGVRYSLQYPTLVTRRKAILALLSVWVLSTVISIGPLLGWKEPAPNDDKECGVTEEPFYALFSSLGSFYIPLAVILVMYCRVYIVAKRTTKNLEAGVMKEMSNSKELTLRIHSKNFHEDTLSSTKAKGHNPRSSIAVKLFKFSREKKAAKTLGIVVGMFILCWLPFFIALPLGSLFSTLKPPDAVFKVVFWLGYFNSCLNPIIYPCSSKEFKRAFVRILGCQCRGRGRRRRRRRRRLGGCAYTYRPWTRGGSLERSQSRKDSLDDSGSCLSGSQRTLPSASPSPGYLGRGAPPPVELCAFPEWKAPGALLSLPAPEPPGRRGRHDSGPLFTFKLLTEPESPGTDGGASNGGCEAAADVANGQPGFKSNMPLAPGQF
To be noted: read-out: binding affinity (Ki) Adrenergic Alpha1B; cited from earlier work.

5-HT1B, sequence (P28222 whole entry, species assumed): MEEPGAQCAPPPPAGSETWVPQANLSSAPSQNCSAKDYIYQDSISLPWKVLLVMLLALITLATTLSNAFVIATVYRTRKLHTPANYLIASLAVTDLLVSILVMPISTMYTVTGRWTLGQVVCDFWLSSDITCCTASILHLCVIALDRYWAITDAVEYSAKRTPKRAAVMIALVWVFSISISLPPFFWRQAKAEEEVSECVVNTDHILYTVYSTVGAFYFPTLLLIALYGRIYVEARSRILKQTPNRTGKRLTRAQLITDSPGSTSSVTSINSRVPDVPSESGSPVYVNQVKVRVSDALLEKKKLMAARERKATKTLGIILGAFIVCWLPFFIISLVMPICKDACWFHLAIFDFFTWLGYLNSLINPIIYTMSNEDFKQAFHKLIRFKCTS
5-HT1D, sequence (P28221 whole entry, species assumed): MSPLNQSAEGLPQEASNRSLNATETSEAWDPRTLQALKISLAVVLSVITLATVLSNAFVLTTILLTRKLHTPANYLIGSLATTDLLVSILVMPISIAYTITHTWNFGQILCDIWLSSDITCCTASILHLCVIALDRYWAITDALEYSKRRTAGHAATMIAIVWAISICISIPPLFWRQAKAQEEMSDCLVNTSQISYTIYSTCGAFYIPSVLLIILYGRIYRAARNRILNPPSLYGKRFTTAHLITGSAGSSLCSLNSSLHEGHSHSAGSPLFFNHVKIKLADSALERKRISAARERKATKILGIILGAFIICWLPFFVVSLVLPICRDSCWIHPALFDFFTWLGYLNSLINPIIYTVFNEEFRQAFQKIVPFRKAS

For the compound `CCNC(C)Cc1cccc(C(F)(F)F)c1` (centres unmarked) [FEN], the Ki (usually the equilibrium dissociation constant of an inhibitor or competing ligand from its target) on 5-HT1B is 1840 nM; on 5-HT1D, 1260 nM; at 5-HT6, 9.08 µM; on 5-HT7 it was 7.31 µM; on Adrenergic Alpha1B it was 142 nM.
